PubChem BioAssay AID248 (DTP/NCI, 2004)
“And” between values parts separate entries of the source, which are not always exact repeats. Identical values can stand only once. Toxic doses and inconclusive results are not listed.

System: L1210 leukemia ip in BDF1 mice, survival T/C
Experiment: NCI In Vivo Anticancer Drug Screen. Data for tumor model L1210 Leukemia (intraperitoneal) in B6D2F1 (BDF1) mice
Conditions: endpoint: mean survival time, higher = longer survival
Method in brief: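 Antitumor effect is assessed in tumor-bearing animals. Survival in the compound arm is compared with a vehicle-dosed control arm and expressed as their quotient.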

[1] = dose: 100.0 mg/kg/injection, schedule: Q01DX001 (ip), vehicle: carboxymethylcellulose (CMC)
[2] = dose: 200.0 mg/kg/injection, schedule: Q01DX001 (ip), vehicle: carboxymethylcellulose (CMC)
[3] = dose: 400.0 mg/kg/injection, schedule: Q01DX001 (ip), vehicle: carboxymethylcellulose (CMC)
[4] = dose: 100.0 mg/kg/injection, schedule: Q04DX003 (ip), vehicle: Klucel (hydroxypropylcellulose) (HPC)
[5] = dose: 200.0 mg/kg/injection, schedule: Q04DX003 (ip), vehicle: Klucel (hydroxypropylcellulose) (HPC)
[6] = dose: 400.0 mg/kg/injection, schedule: Q04DX003 (ip), vehicle: Klucel (hydroxypropylcellulose) (HPC)
[7] = dose: 100.0 mg/kg/injection, schedule: Q01DX001 (ip), vehicle: Klucel (hydroxypropylcellulose) (HPC)
[8] = dose: 100.0 mg/kg/injection, schedule: Q04DX003 (ip), vehicle: saline with Tween-80
[9] = dose: 200.0 mg/kg/injection, schedule: Q01DX001 (ip), vehicle: Klucel (hydroxypropylcellulose) (HPC)
[10] = dose: 200.0 mg/kg/injection, schedule: Q04DX003 (ip), vehicle: saline with Tween-80
[11] = dose: 400.0 mg/kg/injection, schedule: Q01DX001 (ip), vehicle: Klucel (hydroxypropylcellulose) (HPC)
[12] = dose: 400.0 mg/kg/injection, schedule: Q04DX003 (ip), vehicle: saline with Tween-80
[13] = dose: 100.0 mg/kg/injection, schedule: Q01DX001 (ip), vehicle: saline
[14] = dose: 200.0 mg/kg/injection, schedule: Q01DX001 (ip), vehicle: saline
[15] = dose: 400.0 mg/kg/injection, schedule: Q01DX001 (ip), vehicle: saline
[16] = dose: 25.0 mg/kg/injection, schedule: Q04DX003 (ip), vehicle: saline
[17] = dose: 50.0 mg/kg/injection, schedule: Q04DX003 (ip), vehicle: saline
[18] = dose: 100.0 mg/kg/injection, schedule: Q04DX003 (ip), vehicle: saline
[19] = dose: 100.0 mg/kg/injection, schedule: Q01DX009 (ip), vehicle: saline with Tween-80
[20] = dose: 200.0 mg/kg/injection, schedule: Q01DX009 (ip), vehicle: saline with Tween-80

CC(C)(O)c1cccc2c(C(C)(C)O)cccc12
T/C (dose: 50.0 mg/kg/injection, schedule: Q01DX001 (ip), vehicle: carboxymethylcellulose (CMC)): 102 % of control | T/C [1]: 102 % of control | T/C [2]: 94 % of control | T/C [3]: 105 % of control

Cc1ccc(S(=O)(=O)OCC2C3C=CC(C3)C2COS(=O)(=O)c2ccc(C)cc2)cc1 (stereo not drawn)
T/C (dose: 100.0 mg/kg/injection, schedule: Q01DX009 (ip), vehicle: Klucel (hydroxypropylcellulose) (HPC)): 92 % of control | T/C [4]: 95 % of control | T/C (dose: 200.0 mg/kg/injection, schedule: Q01DX009 (ip), vehicle: Klucel (hydroxypropylcellulose) (HPC)): 97 % of control | T/C [5]: 98 % of control | T/C (dose: 400.0 mg/kg/injection, schedule: Q01DX009 (ip), vehicle: Klucel (hydroxypropylcellulose) (HPC)): 98 % of control | T/C [6]: 95 % of control

Cc1cn(C2CC(O)C(COC(c3ccccc3)(c3ccccc3)c3ccccc3)O2)c(=O)[nH]c1=O (stereo not drawn)
T/C (dose: 100.0 mg/kg/injection, schedule: Q01DX005 (ip), vehicle: saline): 104 % of control | T/C (dose: 200.0 mg/kg/injection, schedule: Q01DX005 (ip), vehicle: saline): 96 % of control

O=C(CCc1ccncc1)Nc1ccccc1
T/C [4]: 100 % of control | T/C [5]: 96 % of control | T/C [6]: 100 % of control

Cc1no[n+]([O-])c1C(N)=O
T/C (dose: 100.0 mg/kg/injection, schedule: Q04DX002 (ip), vehicle: Klucel (hydroxypropylcellulose) (HPC)): 98 % of control | T/C (dose: 200.0 mg/kg/injection, schedule: Q04DX002 (ip), vehicle: Klucel (hydroxypropylcellulose) (HPC)): 95 % of control | T/C (dose: 400.0 mg/kg/injection, schedule: Q04DX002 (ip), vehicle: Klucel (hydroxypropylcellulose) (HPC)): 98 % of control

C#CC(C)(C)OC(C)=O
T/C [7]: 99 % of control | T/C [8]: 92 % of control | T/C [9]: 99 % of control | T/C [10]: 103 % of control | T/C [11]: 104 % of control | T/C [12]: 92 % of control

Clc1ccc2scc3c4ccccc4nc-3c2c1
T/C (dose: 100.0 mg/kg/injection, schedule: Q04DX003 (ip), vehicle: acetone): 102 % of control

CC(=O)NS(=O)(=O)c1cc(N)ccc1S(=O)(=O)c1ccc(N)cc1
T/C [13]: 94 % of control | T/C [14]: 92 % of control | T/C [15]: 92 % of control

O=[N+]([O-])c1ccc(O)c(C=Nc2cnc3ccccc3c2)c1
T/C [1]: 88 % of control | T/C [2]: 93 % of control | T/C [3]: 90 % of control

O=C(O)C(c1cc(Cl)co1)N1C(=O)c2ccccc2C1=O (stereo not drawn)
T/C [4]: 103 % of control | T/C [5]: 101 % of control | T/C [6]: 103 % of control

CCOC(=O)C(=O)c1c(C)[nH]c(C(=O)OCC)c1C
T/C [16]: 104 % of control | T/C [17]: 93 % of control | T/C [7]: 95 % of control | T/C [18]: 98 % of control | T/C [9]: 97 % of control | T/C [11]: 101 % of control

CCCCCCC(C)C1C(=O)NC(=S)NC1=O (stereo not drawn)
T/C (dose: 75.0 mg/kg/injection, schedule: Q01DX001 (ip), vehicle: carboxymethylcellulose (CMC)): 93 % of control | T/C (dose: 150.0 mg/kg/injection, schedule: Q01DX001 (ip), vehicle: carboxymethylcellulose (CMC)): 91 % of control | T/C (dose: 300.0 mg/kg/injection, schedule: Q01DX001 (ip), vehicle: carboxymethylcellulose (CMC)): 94 % of control

Brc1ccc2c(c1)CCC2
T/C (dose: 50.0 mg/kg/injection, schedule: Q01DX001 (ip), vehicle: saline): 93 % of control | T/C [13]: 106 % of control and 88 % of control | T/C [14]: 94 % of control and 95 % of control | T/C [15]: 97 % of control and 98 % of control

Cc1ccc(C)c2c1CC(C(=O)O)CC2C (stereo not drawn)
T/C [18]: 93 % of control | T/C (dose: 200.0 mg/kg/injection, schedule: Q04DX003 (ip), vehicle: saline): 110 % of control

CN=C(NC)c1ccc(NC(=O)CCc2ccc(C(=O)Nc3ccc(C(=NC)NC)cc3)cc2)cc1
T/C (dose: 0.75 mg/kg/injection, schedule: Q01DX Z (ip), vehicle: carboxymethylcellulose (CMC)): 94 % of control | T/C (dose: 1.5 mg/kg/injection, schedule: Q01DX Z (ip), vehicle: carboxymethylcellulose (CMC)): 90 % of control | T/C (dose: 3.0 mg/kg/injection, schedule: Q01DX Z (ip), vehicle: carboxymethylcellulose (CMC)): 93 % of control | T/C (dose: 6.0 mg/kg/injection, schedule: Q01DX Z (ip), vehicle: carboxymethylcellulose (CMC)): 113 % of control | T/C (dose: 10.5 mg/kg/injection, schedule: Q01DX Z (ip), vehicle: carboxymethylcellulose (CMC)): 168 % of control | T/C (dose: 50.0 mg/kg/injection, schedule: Q01DX Z (oral), vehicle: carboxymethylcellulose (CMC)): 101 % of control | T/C (dose: 100.0 mg/kg/injection, schedule: Q01DX Z (oral), vehicle: carboxymethylcellulose (CMC)): 105 % of control | T/C (dose: 200.0 mg/kg/injection, schedule: Q01DX Z (oral), vehicle: carboxymethylcellulose (CMC)): 103 % of control | T/C (dose: 400.0 mg/kg/injection, schedule: Q01DX Z (oral), vehicle: carboxymethylcellulose (CMC)): 94 % of control

C[S+](C)(=O)CCCS(=O)(=O)[O-]
T/C (dose: 100.0 mg/kg/injection, schedule: Q04DX002 (ip), vehicle: saline): 99 % of control | T/C (dose: 200.0 mg/kg/injection, schedule: Q04DX002 (ip), vehicle: saline): 92 % of control | T/C (dose: 400.0 mg/kg/injection, schedule: Q04DX002 (ip), vehicle: saline): 92 % of control

CCCCCCCCCCCCCC[n+]1cccc(C#N)c1
T/C (dose: 10.0 mg/kg/injection, schedule: Q01DX001 (ip), vehicle: saline): 100 % of control | T/C (dose: 10.0 mg/kg/injection, schedule: Q04DX003 (ip), vehicle: saline): 93 % of control | T/C (dose: 20.0 mg/kg/injection, schedule: Q01DX001 (ip), vehicle: saline): 100 % of control | T/C (dose: 20.0 mg/kg/injection, schedule: Q04DX003 (ip), vehicle: saline): 93 % of control | T/C (dose: 40.0 mg/kg/injection, schedule: Q01DX001 (ip), vehicle: saline): 97 % of control | T/C (dose: 40.0 mg/kg/injection, schedule: Q04DX003 (ip), vehicle: saline): 86 % of control

CC[N+](C)(CC)CCOc1cc(C)ccc1C(C)C
T/C [16]: 104 % of control | T/C [17]: 98 % of control | T/C [18]: 93 % of control and 98 % of control

N#Cc1ccc(C#N)cc1
T/C [19]: 97 % of control | T/C [8]: 92 % of control and 95 % of control | T/C [20]: 104 % of control | T/C [10]: 106 % of control and 86 % of control | T/C (dose: 400.0 mg/kg/injection, schedule: Q01DX009 (ip), vehicle: saline with Tween-80): 115 % of control | T/C [12]: 100 % of control and 104 % of control

O=CC1=C(Cl)c2ccccc2SC1
T/C (dose: 100.0 mg/kg/injection, schedule: Q01DX001 (ip), vehicle: other): 93 % of control | T/C (dose: 200.0 mg/kg/injection, schedule: Q01DX001 (ip), vehicle: other): 98 % of control

CC(C)(O)C(Cl)S(=O)c1ccccc1 (stereo not drawn)
T/C (dose: 75.0 mg/kg/injection, schedule: Q03DX002 (ip), vehicle: saline with Tween-80): 113 % of control | T/C (dose: 300.0 mg/kg/injection, schedule: Q03DX002 (ip), vehicle: saline with Tween-80): 117 % of control

O=C(NC1=NCCS1)C(=O)NC1=NCCS1
T/C [8]: 105 % of control | T/C [10]: 100 % of control | T/C [12]: 97 % of control

CN=C(Nc1ccc(N(C)C)cc1)SC
T/C (dose: 75.0 mg/kg/injection, schedule: Q01DX001 (ip), vehicle: other): 105 % of control | T/C (dose: 150.0 mg/kg/injection, schedule: Q01DX001 (ip), vehicle: other): 103 % of control

COC(=O)Cc1ccccc1OC
T/C (dose: 50.0 mg/kg/injection, schedule: Q01DX009 (ip), vehicle: saline with Tween-80): 87 % of control | T/C [19]: 87 % of control | T/C [20]: 87 % of control
